Consider six compounds from patent US11919910B2, “Spiropyrrolidine derived antiviral agents” (ENANTA PHARMACEUTICALS, INC., priority 2021, dated 2024).

Molecules are shown by their SMILES.

The target in one series is SARS-CoV-2 3CL-protease (Severe acute respiratory syndrome coronavirus 2, UniProt P0DTD1). The experiment in a line: SARS-CoV-2 3C-like (3CL) protease fluorescence assay (FRET). Conditions: recombinant SARS-CoV-2 3CL-protease 10 nM, 30 min preincubation at RT, substrate 40 μM, run in duplicate. The format is biochemical.
Series [1] is classed as physicochemical. How it is done: Step 7: Compound (3-6) (80 mg, 0.167 mmol) and 4,6,7-trifluoro-1H-indole-2-carboxylic acid (36.0 mg, 0.167 mmol) were dissolved in CH2Cl2 (1.393 ml) and DMF (0.279 ml) at 0° C. 4-methylmorpholine (55.1 μl, 0.501 mmol) and HATU (66.7 mg, 0.176 mmol) were added. The mixture was stirred at 0° C. for 3 h, diluted with DCM, and washed with 5% NaHCO3. The organic layer was washed with brine, dried over Na2SO4, and concentrated in vacuo. The crude was purified by chromatography on silica gel (ISCO 4 g) using ethyl acetate/cyclohexane (0-60%) to give a product as a light yellow oil (3-7) (60 mg, 53%). LC-MS, ES−: 674.2 [M-1]. Step 8: To a solution of (3-7) (60 mg, 0.089 mmol) in DCM (2 ml) at 0° C. was added Dess-Martin periodinane (56.5 mg, 0.133 mmol). The mixture was stirred at 0° C. for 3 h, quenched with 10% Na2S2O3, stirred for another 15 min, and extracted with DCM. The combined organic layers were washed with 10% Na2S2O3, Sat. NaHCO3, brine, dried over Na2SO4, and concentrated.

Regarding `CC(C)C[C@@H](C(=O)N1C[C@]2(C[C@H]1C(=O)c1nc3ccccc3s1)C(=O)Nc1ccccc12)N(C)C(=O)c1cc2c(F)cc(F)cc2[nH]1` [Example 1], at SARS-CoV-2 3CL-protease, the concentration for half-maximal inhibition (IC50) (as a rule, the concentration that gives 50% inhibition) is below 1 µM.
Still for that read-out and setting: then `CC(C)C[C@@H](C(=O)N1C[C@]2(C[C@@H]1C(=O)c1nc3ccccc3s1)C(=O)Nc1ccccc12)N(C)C(=O)c1cc2c(F)cc(F)c(F)c2[nH]1` [Example 4], with above 10 µM.
Same read-out and setting: with `CC(C)C[C@@H](C(=O)N1C[C@]2(C[C@@H]1C(=O)c1nc3ccccc3s1)C(=O)Nc1ccccc12)N(C)C(=O)c1cc2c(F)cc(F)cc2[nH]1` [Example 2] the figure was above 10 µM.
For the compound `CC(C)C[C@@H](C(=O)N1C[C@]2(C[C@H]1C(=O)c1nc3ccccc3s1)C(=O)Nc1ccccc12)N(C)C(=O)c1cc2c(F)cc(F)c(F)c2[nH]1` [Example 3], the stability in solution entry in series [1] was “not stable in solution”. For the same compound, the half-inhibitory concentration (IC50) on SARS-CoV-2 3CL-protease is above 10 µM.
For `CC(C)C[C@@H](C(=O)N1C[C@]2(C[C@H]1C(=O)c1nc3ccccc3s1)C(=O)Nc1ccccc12)N(C)C(=O)OCc1ccccc1` [Example 5], the 50% inhibitory concentration (IC50) on SARS-CoV-2 3CL-protease is above 10 µM.
Take `CC(C)C[C@@H](C(=O)N1C[C@]2(C[C@H]1C(=O)c1nc3ccccc3s1)C(=O)Nc1ccccc12)N(C)C(=O)[C@H](C)NC(=O)OCc1ccccc1` [Example 6]: the IC50 on SARS-CoV-2 3CL-protease was below 1 µM.
